From patent US8063204B2, “Benzothiazole and benzoxazole linked pyrrolo[2,1-c] [1, 4] benzodiazepine hybrids as novel antitumour agents and process for the preparation thereof” (Council of Scientific & Industrial Research, priority 2007, dated 2011)

Key:
Melanoma = experiment: NCI in vitro anticancer screen, SRB assay, melanoma panel; format: cell-based, human; conditions: average of six to nine cell lines, 48 h; for GI50: Homo sapiens, read-out: Log10 GI50 (converted)
Protocol: (§1) Anticancer activity: In vitro biological activity studies were carried out at the National Cancer Institute (USA).
(§2) The compounds were evaluated for in vitro anticancer activity against sixty human tumour cells derived from nine cancer types (leukemia, non-small-cell lung, colon, CNS, melanoma, ovarian, prostate, and breast cancer) as shown in Table 3. For each compound, dose response curves for each cell line were measured at a minimum of five concentrations at 10 fold dilutions. A protocol of 48 h continuous drug exposure was used and a sulforhodamine B (SRB) protein assay was used to estimate cell viability or growth. The concentration causing 50% cell growth inhibition (GI50), total cell growth inhibition (TGI 0% growth) and 50% cell death (LC50, −50% growth) compared with the control was calculated.

Ovarian = experiment: NCI in vitro anticancer screen, SRB assay, ovarian panel; format: cell-based, human; conditions: average of six to nine cell lines, 48 h; for GI50: Homo sapiens, read-out: Log10 GI50 (converted)
Protocol: as §1, §2

Prostate = experiment: NCI in vitro anticancer screen, SRB assay, prostate panel; format: cell-based, human; conditions: average of six to nine cell lines, 48 h; for GI50: Homo sapiens, read-out: Log10 GI50 (converted)
Protocol: as §1, §2

Colon = experiment: NCI in vitro anticancer screen, SRB assay, colon panel; format: cell-based, human; conditions: average of six to nine cell lines, 48 h; for GI50: Homo sapiens, read-out: Log10 GI50 (converted)
Protocol: as §1, §2

Breast = experiment: NCI in vitro anticancer screen, SRB assay, breast panel; format: cell-based, human; conditions: average of six to nine cell lines, 48 h; for GI50: Homo sapiens, read-out: Log10 GI50 (converted)
Protocol: as §1, §2

Renal = experiment: NCI in vitro anticancer screen, SRB assay, renal panel; format: cell-based, human; conditions: average of six to nine cell lines, 48 h; for GI50: Homo sapiens, read-out: Log10 GI50 (converted)
Protocol: as §1, §2

CNS = experiment: NCI in vitro anticancer screen, SRB assay, CNS panel; format: cell-based, human; conditions: average of six to nine cell lines, 48 h; for GI50: Homo sapiens, read-out: Log10 GI50 (converted)
Protocol: as §1, §2

Leukemia = experiment: NCI in vitro anticancer screen, SRB assay, leukemia panel; format: cell-based, human; conditions: average of six to nine cell lines, 48 h; for GI50: Homo sapiens, read-out: Log10 GI50 (converted)
Protocol: as §1, §2

[1] = tested on: duplex-form calf thymus DNA (CT-DNA); experiment: Thermal denaturation studies with calf thymus DNA (DNA binding affinity); conditions: [PBD]:[DNA] molar ratio 1:5, CT-DNA 100 μM, ligand 20 μM, sodium phosphate buffer pH 7.00; for ΔTm after incubation at 37° C. for 0 h: 0 h incubation; for ΔTm after incubation at 37° C. for 18 h: 18 h incubation
Protocol: Compounds have been subjected to thermal denaturation studies with duplex-form calf thymus DNA (CT-DNA) using an modification of a reported procedure (Newman, M. S. Carcinog-compr. Surv. 1976, 1, 203; (b) Hecht, S. S.; Loy, M.; Hoffman, Carcinog-compr. Surv. 1976, 1, 325). Working solutions in aqueous buffer (10 mM NaH2PO4/Na2HPO4, 1 mM Na2EDTA, pH 7.00+0.01) containing CT-DNA (100 μm in phosphate) and the PBD (20 μm) have been prepared by addition of concentrated PBD solutions in DMSO to obtain a fixed [PBD]/[DNA] molar ratio of 1:5. The DNA-PBD solutions have been incubated at 37° C. for 0 and 18 h prior to analysis. Samples have been monitored at 260 nm using a Beckman DU-800 spectrophotometer fitted with high performance temperature controller, and heated at 1° C. min^−1 in the 40-110° C. range. DNA helix→coil transition temperatures (Tm) have been obtained from the maxima in the d(A260)/dT derivative plots. Drug-induced alterations in DNA melting behavior are given by: ΔTm=Tm(DNA+PBD)−Tm(DNA alone), where the Tm value for the PBD-free CT-DNA is 69.1±0.01.
The DNA binding activity for these novel C8-linked benzothiazole, benzoxazole-PBD hybrids has been examined by thermal denaturation studies using calf thymus (CT) DNA. […] The data for the compounds 9a-h is included in Table 1 for comparison.

Non-small-cell-lung = experiment: NCI in vitro anticancer screen, SRB assay, non-small-cell lung panel; format: cell-based, human; conditions: average of six to nine cell lines, 48 h; for GI50: Homo sapiens, read-out: Log10 GI50 (converted)
Protocol: as §1, §2

[2] = tested on: sixty human tumour cells derived from nine cancer types; experiment: cells; format: cell-based; conditions: for Log10GI50 mean graph midpoint (MG_MID) / Log10LC50 mean graph midpoint (MG_MID) / Log10TGI mean graph midpoint (MG_MID): 48 h continuous drug exposure, SRB, mean over human tumour cell lines; for log10 GI50 anticancer activity, range over nine cancer cell types: range across nine cancer cell type
Protocol: as §1, §2

[3] = against nine human tumor cell lines

Structure (SMILES)	ΔTm after incubation at 37° C. for 0 h [1] [°C]	ΔTm after incubation at 37° C. for 18 h [1] [°C]	Log10GI50 mean graph midpoint (MG_MID) [2]	Log10LC50 mean graph midpoint (MG_MID) [2]	Log10TGI mean graph midpoint (MG_MID) [2]	log10 GI50 anticancer activity, range over nine cancer cell types [2] [mole/lit]	GI50 (Melanoma) [nM]	GI50 (Ovarian) [nM]	GI50 (Prostate) [nM]	GI50 (Colon) [nM]	GI50 (Breast) [nM]	GI50 (Renal) [nM]	GI50 (CNS) [nM]	GI50 (Leukemia) [nM]	GI50 (Non-small-cell-lung) [nM]	other results
COc1cc2c(cc1OCCCCOc1ccc(-c3nc4ccccc4s3)cc1)N=C[C@@H]1CCCN1C2=O [Compound 9a, 7-Methoxy-8-{4-[4-(1,3-benzothiazol-2-yl)phenoxy]butyl}oxy-(11aS)-1,2,3,11a-tetrahydro-5H-pyrrolo[2,1-c][1,4]benzodiazepin-5-one]	0.5	0.5	−6.30	−4.75	−5.63	−6.08 to −6.73										Log10 GI50 (Melanoma): −6.10 mol/L; Log10 GI50 (Ovarian): −6.08 mol/L; Log10 GI50 (Prostate): −6.55 mol/L; Log10 GI50 (Colon): −6.38 mol/L; Log10 GI50 (Breast): −6.43 mol/L; Log10 GI50 (Renal): −6.33 mol/L; Log10 GI50 (CNS): −6.20 mol/L; Log10 GI50 (Leukemia): −6.73 mol/L; Log10 GI50 (Non-small-cell-lung): −6.12 mol/L; LC50 (50% cell kill) ([2]; Homo sapiens, read-out: log10 LC50 mean graph midpoint value (converted)): 17800 nM; log10 GI50 mean graph midpoint value [2, 3]: −6.30 mol/lit; log10 TGI mean graph midpoint value [2, 3]: −5.63 mol/lit
COc1cc(-c2nc3ccccc3s2)ccc1OCCCCOc1cc2c(cc1OC)C(=O)N1CCC[C@H]1C=N2 [Compound 9b, 7-Methoxy-8-{4-[4-(1,3-benzothiazol-2-yl)-2-methoxyphenoxy]butyl}oxy-(11aS)-1,2,3,11a-tetrahydro-5H-pyrrolo[2,1-c][1,4]benzodiazepin-5-one]	0.5	0.5	−6.07	−4.67	−5.47	−5.85 to −6.45	1170	1410	355	759	646	851	1020	398	1230	
COc1cc2c(cc1OCCCCCOc1ccc(-c3nc4ccccc4s3)cc1)N=C[C@@H]1CCCN1C2=O [Compound 9c, 7-Methoxy-8-{5-[4-(1,3-benzothiazol-2-yl)phenoxy]pentyl}oxy-(11aS)-1,2,3,11a-tetrahydro-5H-pyrrolo[2,1-c][1,4]benzodiazepin-5-one]	4.1	4.3	−6.15	−4.35	−5.30	−5.87 to −6.65	692	1350	288	676	525	794	1120	224	851	
COc1cc(-c2nc3ccccc3s2)ccc1OCCCCCOc1cc2c(cc1OC)C(=O)N1CCC[C@H]1C=N2 [Compound 9d, 7-Methoxy-8-{5-[4-(1,3-benzothiazol-2-yl)-2-methoxyphenoxy]pentyl}oxy-(11aS)-1,2,3,11a-tetrahydro-5H-pyrrolo[2,1-c][1,4]benzodiazepin-5-one]	6.2	6.3	−7.09	−4.37	−5.78	−6.79 to −7.51	83.2	162	33.9	83.2	56.2	110	100	30.9	95.5	
COc1cc2c(cc1OCCCCCOc1ccc(-c3nc4ccccc4o3)cc1)N=C[C@@H]1CCCN1C2=O [Compound 9e, 7-Methoxy-8-{5-[4-(1,3-benzoxazol-2-yl)phenoxy]pentyl}oxy-(11aS) 1,2,3,11a-tetra-hydro-5H-pyrrolo[2,1-c][1,4]benzodiazepin-5-one]	0.5	0.5														
COc1cc(-c2nc3ccccc3o2)ccc1OCCCCCOc1cc2c(cc1OC)C(=O)N1CCC[C@H]1C=N2 [Compound 9f, 7-Methoxy-8-{5-[4-(1,3-benzoxazol-2-yl)-2-methoxyphenoxy]pentyl}oxy-(11aS) 1,2,3,11a-tetra-hydro-5H-pyrrolo[2,1-c][1,4]benzodiazepin-5-one]	2.1	4.2														
COc1cc2c(cc1OCCCCCC(=O)Nc1ccc(-c3nc4ccccc4s3)cc1)N=C[C@@H]1CCCN1C2=O [Compound 9g, 7-Methoxy-8-{5-[N^1-(4-(1,3-benzothiazol-2-yl)phenyl)]pentanecarboxamide}oxy-(11aS)-1,2,3,11a-tetra-hydro-5H-pyrrolo[2,1-c][1,4]benzodiazepin-5-one]	4.1	4.3														
COc1cc2c(cc1OCCCCCC(=O)Nc1ccc(-c3nc4ccc(F)cc4s3)cc1)N=C[C@@H]1CCCN1C2=O [Compound 9h, 7-Methoxy-8-{5-[N^1-(4-(6-fluoro-1,3-benzothiazol-2-yl)phenyl)]pentanecarboxamide}oxy-(11aS)-1,2,3,11a-tetra-hydro-5H-pyrrolo[2,1-c][1,4]benzodiazepin-5-one]	4.2	2.3														
COc1cc2c(cc1O)N=CC1CCCN1C2=O (stereo not shown) [DC-81, reference compound]	0.3	0.7														
